Test results as given in EP0009728A1, “Hemostatic and platelet increasing agent containing alpha, beta-diaminopropionic acid and derivatives thereof” (Hokuriku Pharmaceutical Co.,Ltd, priority 1978, dated 1980).

Experiments:
platelet = experiment: Platelet-increasing activity (platelet count, Fonio direct method); type: in vivo, mice; settings: for increase of the number of platelet versus control: 1 mg/0.5 ml./body i.p., 10 mins. after administration, versus Ringer-Locke control
Method: Platelet-Increasing Activity: • The compound having the formula shown in Example 1 was intraperitoneously administered to ddY female ten(10) mice as one grouping at the dose of 1 mg/0.5 ml./body in the form of a Ringer-Locke solution (1 mg. of the compound was dissolved in a Ringer-Locke solution). One eyeball was isolated 10 mins. after the administration to bleed. Blood was collected and the number of platelet was measured according to a direct method (Fonio original method), details of which are described in Dsch. Z. Schr. Chir., vol. 117, page 176 (1912).
As a control group, a Ringer-Locke solution was intraperitoneously administered at the dose of 0.5 ml/body for comparison.
Activity on Platelet-Increase: • The procedure similar to Example 3 was repeated except that the compound of Example 3 was used instead of the compound of Example 1.

Male mice = experiment: Hemostatic test (bleeding time after wounding the tail vein); type: in vivo; settings: for Bleeding Time (mean±S.E.) After Administration / Shortened Time (mean±S.E.) / Shortened Rate: Table 7; for Bleeding Time (mean±S.E.) After Administration / Shortened Time (mean±S.E.): mean of five tests, dose not stated; for Shortened Rate: shortened time relative to bleeding time before administration; for rate of shortening bleeding time (shortened rate): summary in the description
Method: The present invention will be described in more detail with reference to the examples below, in which hemostatic test was performed as follows:
Male mice weighing 15 to 20 g. were intraperitoneously given with 0.5 ml. of a Locke solution. The mice-.were holded on a mouse holder 10 minutes after the administration, where the left vein of the tail at the middle of the tail (3 to 4 cm. from the root of the tail) was wounded with a knife to bleed. A filter paper was softly touched with the incised wound at the interval of 30 seconds and observation was made if blood was transferred onto the filter paper. Time until blood was not transferred onto the filter paper was measured and was made a bleeding time for control
Subsequently, a test compound dissolved in 0.5 ml. of a Locke solution was intraperitoneously administered to the same mice. The mice were holded onto a mouse holder 10 minutes after the administration. The right vein at the middle of the tail was wounded with a knife and a bleeding time was measured as in control described above.
A difference in bleeding time between the control and the test compound was made a shortened time for bleed-stopping.

[1] = Toxicity / neurotoxic activity (no method described)

**Q.** Which “increase of the number of platelet as compared to a control” value (platelet; dose not stated) does the source give for `NC[C@H](N)C(=O)O` [α,β-diaminopro-pionic acid, L-α, β-diaminopropionic acid] here?
**A.** Its value is “about 17%”.

**Q.** And the “Bleeding Time (mean±S.E.) After Administration” value (Male mice)?
**A.** The value was 306 ± 37 s.

**Q.** And the “Shortened Time (mean±S.E.)” value (Male mice)?
**A.** Its value is 240±33 p<0.05 second.

**Q.** What about the “Shortened Rate” value (Male mice) of the same compound?
**A.** Its value is 43.96%.

**Q.** And the “rate of shortening bleeding time (shortened rate)” value (Male mice)?
**A.** The value was 44%.

**Q.** And the “toxicity relative to that of the oxalyl derivative” value ([1]; compared with L-N-β-oxalyl-α, β-diaminopropionic acid)?
**A.** Its value is “about 1/5”.

**Q.** For `N[C@@H](CNC(=O)C(=O)O)C(=O)O` [compound of Example 1, L-N-β-oxalyl-α,β-diaminopropionic acid], which “increase of the number of platelet versus control” value (platelet; ddY female mice) is on record?
**A.** The value was “about 30%”.

**Q.** And the “Number of Platelet” value (platelet; Table 4, 1 mg/0.5 ml./body i.p. in Ringer-Locke solution, ddY female mice, 10 per group, blood 10 mins. after administration)?
**A.** The value was 69.6 ± 6.31 10,000/mm^3.

**Q.** And the “Bleeding Time (mean±S.E.) After Administration” value (Male mice)?
**A.** Its value is 354 ± 45 s.

**Q.** What about the “Shortened Time (mean±S.E.)” value (Male mice) of the same compound?
**A.** The value was 192 ± 36 s.

**Q.** And the “Shortened Rate” value (Male mice)?
**A.** Its value is 35.16%.

**Q.** What about the “rate of shortening bleeding time (shortened rate)” value (Male mice) of the same compound?
**A.** The value was 35%.

**Q.** What about the “neurotoxic side effect / neurotoxic activity (in words)” value [1] of the same compound?
**A.** Its value is “does not exhibit neurotoxic side effect”.

**Q.** What does the source list for `N[C@H](CNC(=O)C(=O)O)C(=O)O` [Compound of Example 3, D-N-β-Oxalyl- α, β -diaminopropionic acid]?
**A.** increase of the number of platelet versus control (platelet; ddY female mice): ~24%; Number of Platelet (platelet; Table 6, same procedure as Table 4 (1 mg/0.5 ml./body i.p., ddY female mice)): 68.0 ± 7.35 10,000/mm^3; rate of shortening bleeding time (shortened rate) (Male mice): 35%; neurotoxic side effect / neurotoxic activity (in words) [1]: slighter in neurotoxic activity
